In PubChem BioAssay AID602328 (NMMLSC, 2012):
The source made the active and inactive calls. No rule for the calls is given here.

Target: Botulinum neurotoxin type A (Clostridium botulinum (strain Hall / ATCC 3502 / NCTC 13319 / Type A)) (UniProt P0DPI1)
Test: BoNT/A light chain protease inhibitors, dose response, biochemical, multiplex microsphere flow cytometry, cherry pick 02 (AID 602328)
Details: BoNT/A LC substrate cleavage

Sequence of Botulinum neurotoxin type A (Clostridium botulinum (strain Hall / ATCC 3502 / NCTC 13319 / Type A)) (P0DPI1 whole entry, looked up): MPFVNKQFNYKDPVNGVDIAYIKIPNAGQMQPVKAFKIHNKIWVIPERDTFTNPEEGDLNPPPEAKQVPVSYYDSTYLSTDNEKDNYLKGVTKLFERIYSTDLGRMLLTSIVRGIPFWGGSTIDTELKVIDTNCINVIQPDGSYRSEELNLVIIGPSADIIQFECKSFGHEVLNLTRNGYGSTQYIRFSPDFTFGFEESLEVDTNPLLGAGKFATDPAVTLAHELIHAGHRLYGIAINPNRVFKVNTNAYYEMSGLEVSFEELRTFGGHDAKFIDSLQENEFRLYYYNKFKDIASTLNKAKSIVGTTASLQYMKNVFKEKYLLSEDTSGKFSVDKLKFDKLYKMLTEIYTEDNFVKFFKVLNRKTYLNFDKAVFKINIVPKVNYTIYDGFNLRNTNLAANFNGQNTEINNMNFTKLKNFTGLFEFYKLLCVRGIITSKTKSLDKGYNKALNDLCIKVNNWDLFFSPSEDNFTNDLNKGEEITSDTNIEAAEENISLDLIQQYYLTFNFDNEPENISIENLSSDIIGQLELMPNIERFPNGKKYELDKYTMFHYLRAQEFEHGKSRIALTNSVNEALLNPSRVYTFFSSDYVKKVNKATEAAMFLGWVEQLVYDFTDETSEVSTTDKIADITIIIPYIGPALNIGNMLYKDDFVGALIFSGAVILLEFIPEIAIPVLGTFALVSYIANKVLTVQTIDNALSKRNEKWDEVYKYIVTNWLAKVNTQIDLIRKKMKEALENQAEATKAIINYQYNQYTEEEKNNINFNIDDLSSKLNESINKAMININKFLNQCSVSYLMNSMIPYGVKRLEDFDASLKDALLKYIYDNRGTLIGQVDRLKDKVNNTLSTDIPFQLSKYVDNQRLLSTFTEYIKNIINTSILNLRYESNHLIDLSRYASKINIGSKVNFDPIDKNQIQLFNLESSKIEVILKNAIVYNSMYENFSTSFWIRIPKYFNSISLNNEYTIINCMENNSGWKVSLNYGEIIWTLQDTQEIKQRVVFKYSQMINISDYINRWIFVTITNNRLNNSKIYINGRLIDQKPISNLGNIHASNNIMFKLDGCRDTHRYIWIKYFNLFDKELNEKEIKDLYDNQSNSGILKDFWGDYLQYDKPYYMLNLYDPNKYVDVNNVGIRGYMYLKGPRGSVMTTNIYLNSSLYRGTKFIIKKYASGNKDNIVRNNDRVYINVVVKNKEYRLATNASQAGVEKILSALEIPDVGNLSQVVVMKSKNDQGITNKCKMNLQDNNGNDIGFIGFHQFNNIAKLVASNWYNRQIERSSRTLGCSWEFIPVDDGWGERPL

| Compound | IC50 |
| --- | --- |
| Oc1[nH]c(N=C2N=c3ccccc3=N2)c2ccccc12 | > 20 µM (inactive) |
| O=c1c(/C=C(\O)c2ccccc2)nc2ccccc2n1-c1ccccc1 | > 20 µM (inactive) |
